Test results reported in US7868135B2, “Compositions of lipopeptide antibiotic derivatives and methods of use thereof” (priority 2003, dated 2011).

Legend:
[1] = tested on: Staphylococcus aureus SAU0017 (MSSA); experiment: Broad spectrum MIC, Table 17/18 columns E, F (+ 0.625 mM calcium; + calcium and 30% bovine serum); format: cell-based; settings: in µg/mL; for MIC, media condition E: condition E: + 0.625 mM calcium; for MIC, media condition F: condition F: + calcium and 30% bovine serum
How it was run: (§1)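 Colonies picked from 18-24 hour blood agar plates were inoculated into cation-adjusted Mueller-Hinton broth with 0.625 mM calcium or alternative media, exposed to doubling serial dilutions of compound, incubated at about 37° C for 24 hours, and scored for minimum inhibitory concentration.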

[2] = tested on: Streptococcus pneumoniae SPN0023 (PRSP); experiment: Broad spectrum MIC, Table 17/18 column K; format: cell-based; settings: condition K of Table 17, in µg/mL
How it was run: as §1

[3] = tested on: Staphylococcus epidermidis SEP0375 (MRSE); experiment: Broad spectrum MIC, Table 17/18 column I; format: cell-based; settings: condition I of Table 17, in µg/mL
How it was run: as §1

[4] = tested on: Enterococcus faecalis EFS0004 (VSE); experiment: Broad spectrum MIC, Table 17/18 B, C, D (CAMHB; + 0.625 mM calcium; + calcium and 30% bovine serum); format: cell-based; settings: in µg/mL; for MIC, media condition B: condition B: CAMHB; for MIC, media condition C: condition C: + 0.625 mM calcium; for MIC, media condition D: condition D: + calcium and 30% bovine serum
How it was run: as §1

[5] = tested on: S. aureus Smith (SAU0017, ATCC 19636); experiment: Intraperitoneal murine model of protection against infection (ED50, Table 21); format: in vivo, Staphylococcus aureus; settings: Swiss CD1 mice infected i.p., compound i.v.
[6] = tested on: Enterococcus faecium EFM0101 (VRE, MDR); experiment: Broad spectrum MIC, Table 17/18 column A; format: cell-based; settings: condition A of Table 17, in µg/mL
How it was run: as §1

[7] = In vivo half-life after single i.v. administration, mice; settings: female, Swiss CD1, mouse, plasma, iv, 10 mg/kg
[8] = tested on: Staphylococcus aureus SAU0031 (VISA); experiment: Broad spectrum MIC, Table 17/18 column G; format: cell-based; settings: condition G of Table 17, in µg/mL
How it was run: as §1

[9] = tested on: Streptococcus pneumoniae SPN0032 (PSSP); experiment: Broad spectrum MIC, Table 17/18 column L; format: cell-based; settings: condition L of Table 17, in µg/mL
How it was run: as §1

[10] = tested on: Streptococcus pyogenes SPY0001 (PenS); experiment: Broad spectrum MIC, Table 17/18 column M; format: cell-based; settings: condition M of Table 17, in µg/mL
How it was run: as §1

[11] = tested on: Streptococcus pneumoniae SPN0002 (PISP); experiment: Broad spectrum MIC, Table 17/18 column J; format: cell-based; settings: condition J of Table 17, in µg/mL
How it was run: as §1

[12] = tested on: Staphylococcus aureus SAU0065 (MRSA); experiment: Broad spectrum MIC, Table 17/18 column H; format: cell-based; settings: condition H of Table 17, in µg/mL
How it was run: as §1

| SMILES | MIC, media condition E [1] | MIC, media condition F [1] | MIC, media condition K [2] | MIC, media condition I [3] | MIC, media condition B [4] | MIC, media condition C [4] | MIC, media condition D [4] | ED50 in Mice, S. aureus (SAU0017) [5] | MIC, media condition A [6] | half-life [7] | MIC, media condition G [8] | MIC, media condition L [9] | MIC, media condition M [10] | MIC, media condition J [11] | MIC, media condition H [12] |
| --- | --- | --- | --- | --- | --- | --- | --- | --- | --- | --- | --- | --- | --- | --- | --- |
| CCCCCCCCCCCCCCC(=O)NC(CC(=O)O)C(=O)NC1C(=O)N2CCCCC2C(=O)NC(C(C)C(=O)O)C(=O)NC(CC(=O)O)C(=O)NCC(=O)NC(CC(=O)O)C(=O)NCC(=O)NC(C(C)NC(=O)CNC(=O)[C@@H](N)CCCCN)C(=O)NC(C(C)C)C(=O)N2CCCC2C(=O)NC1C (stereo partly drawn) [Compound 4, C15-Amphomycin-9-Gly-Lys] | 0.5-1 | 4 | 0.25 | 1-2 | 1-4 | 1-2 | >64 | 6.2 mg/kg | 1 | 0.752 h | 8 | 0.25-0.5 | 0.25 | 0.25 | 1-4 |
| CCCCCCCCCCCCCCC(=O)NC(CC(=O)O)C(=O)NC1C(=O)N2CCCCC2C(=O)NC(C(C)C(=O)O)C(=O)NC(CC(=O)O)C(=O)NCC(=O)NC(CC(=O)O)C(=O)NCC(=O)NC(C(C)NC(=O)CCN)C(=O)NC(C(C)C)C(=O)N2CCCC2C(=O)NC1C (stereo not drawn) [Compound 147, C15-Amphomycin-9-(β-Ala)] | 0.25-0.5 | 2 | 0.125 | 0.5-1 | 2 | 0.5-1 | 32 | 6.5 mg/kg | 0.5-1 | 8.02 h | 2 | 0.125 | 0.125 | 0.125 | 1 |
| CCCCCCCCCCCCCCC(=O)NC(CC(=O)O)C(=O)NC1C(=O)N2CCCCC2C(=O)NC(C(C)C(=O)O)C(=O)NC(CC(=O)O)C(=O)NCC(=O)NC(CC(=O)O)C(=O)NCC(=O)NC(C(C)NC(=O)CN(C)C(=O)[C@@H](N)CCCCN)C(=O)NC(C(C)C)C(=O)N2CCCC2C(=O)NC1C (stereo partly drawn) [Compound 199, C15-Amphomycin-9-Sar-Lys] | 0.25-1 | 4-8 | 0.25 | 0.5-1 | 1-2 | 1-2 | 64 | 8 mg/kg | 0.5-1 | 6.18 h | 4-8 | 0.25-0.5 | 0.25 | 0.25 | 1-2 |
